# Reference: ChEMBL document CHEMBL1121578, “Synthesis of certain [6:5:6] linear tricyclic nucleosides as potential antitumor agents” (1980)
# How the values were obtained:
# L1210 [1] = assay: Concentration required to reduce the growth rate of L-1210 cells to half of the control rate; assay type: functional; conditions: Mus musculus, read-out: ID50 (the source's name)
# Mus musculus [2] = assay: In vivo increase in life span of drug treated (L1210-bearing) mice administered at a dose of 120 mg/kg/injection; assay type: functional
# Mus musculus [3] = assay: In vivo increase in life span of drug treated (L1210-bearing) mice administered at a dose of 320 mg/kg/injection; assay type: functional
# Mus musculus [4] = assay: In vivo increase in life span of drug treated (P388-bearing) mice administered at a dose of 50 mg/kg/injection; assay type: functional
# Mus musculus [5] = assay: In vivo increase in life span of drug treated (L1210-bearing) mice administered at a dose of 100 mg/kg/injection; assay type: functional
# Mus musculus [6] = assay: In vivo increase in life span of drug treated (L1210-bearing) mice administered at a dose of 8 mg/kg/injection; assay type: functional
# Mus musculus [7] = assay: In vivo increase in life span of drug treated (L1210-bearing) mice administered at a dose of 200 mg/kg/injection; assay type: functional
# Mus musculus [8] = assay: In vivo increase in life span of drug treated (P388-bearing) mice administered at a dose of 200 mg/kg/injection; assay type: functional
# Mus musculus [9] = assay: In vivo increase in life span of drug treated (L1210-bearing) mice administered at a dose of 400 mg/kg/injection; assay type: functional
# Mus musculus [10] = assay: In vivo increase in life span of drug treated (L1210-bearing) mice administered at a dose of 25 mg/kg/injection; assay type: functional
# L1210 [11] = assay: Concentration required to reduce the growth rate of L-1210 cells to half of the control rate; No effect on cell growth of 1E-4 M of the compound; assay type: functional, cell-based; conditions: Mus musculus
# Mus musculus [12] = assay: In vivo increase in life span of drug treated (L1210-bearing) mice administered at a dose of 600 mg/kg/injection; assay type: functional
smiles,measurement,setting,value
NC(=O)c1c(N)n(C2O[C@H](CO)[C@@H](O)[C@H]2O)c2ncnc(N)c12 (stereo partly specified),IC50,L1210 [1],16 µM
same,ILS at 120 mg/kg,Mus musculus [2],30%
Nc1ncnc2c1c1cnc(O)nc1n2C1O[C@H](CO)[C@@H](O)[C@H]1O (stereo partly specified),ILS at 320 mg/kg,Mus musculus [3],10%
same,IC50,L1210 [1],75 µM
Nc1ncnc2c1c1c(O)ncnc1n2C1O[C@H](CO)[C@@H](O)[C@H]1O (stereo partly specified),ILS at 50 mg/kg,Mus musculus [4],33%
same,IC50,L1210 [1],63 µM
same,ILS at 100 mg/kg,Mus musculus [5],20%
N#Cc1c(N)n(C2O[C@H](CO)[C@@H](O)[C@H]2O)c2ncnc(N)c12 (stereo partly specified),ILS at 8 mg/kg,Mus musculus [6],26%
same,IC50,L1210 [1],0.18 µM
CSc1ncnc2c1c1c(N)ncnc1n2C1O[C@H](CO)[C@@H](O)[C@H]1O (stereo partly specified),ILS at 200 mg/kg,Mus musculus [7],9%
same,ILS at 200 mg/kg,Mus musculus [8],5%
same,IC50,L1210 [1],8.6 µM
Nc1ncnc2c1c1c(S)nc(S)nc1n2C1O[C@H](CO)[C@@H](O)[C@H]1O (stereo partly specified),ILS at 400 mg/kg,Mus musculus [9],10%
same,IC50,L1210 [1],6.1 µM
Nc1ncnc2c1c1c(N)nc(O)nc1n2C1O[C@H](CO)[C@@H](O)[C@H]1O (stereo partly specified),ILS at 200 mg/kg,Mus musculus [7],21%
same,IC50,L1210 [1],120 µM
NC(=S)c1c(N)n(C2O[C@H](CO)[C@@H](O)[C@H]2O)c2ncnc(N)c12 (stereo partly specified),IC50,L1210 [1],0.22 µM
same,ILS at 25 mg/kg,Mus musculus [10],37%
Nc1ncnc2c1c1cncnc1n2C1O[C@H](CO)[C@@H](O)[C@H]1O (stereo partly specified),ILS at 200 mg/kg,Mus musculus [7],2%
same,IC50,L1210 [1],> 100 µM
CSc1nc(O)nc2c1c1c(N)ncnc1n2C1O[C@H](CO)[C@@H](O)[C@H]1O (stereo partly specified),ILS at 200 mg/kg,Mus musculus [7],4%
same,ID50,L1210 [11],No effect
Nc1ncnc2c1c1c(SCc3ccc([N+](=O)[O-])cc3)ncnc1n2C1O[C@H](CO)[C@@H](O)[C@H]1O (stereo partly specified),ILS at 200 mg/kg,Mus musculus [7],-2%
same,IC50,L1210 [1],45 µM
Nc1ncnc2c1c1c(O)nc(S)nc1n2C1O[C@H](CO)[C@@H](O)[C@H]1O (stereo partly specified),ILS at 400 mg/kg,Mus musculus [9],14%
same,IC50,L1210 [1],7 µM
Nc1ncnc2c1c1c(S)ncnc1n2C1O[C@H](CO)[C@@H](O)[C@H]1O (stereo partly specified),IC50,L1210 [1],2 µM
same,ILS at 100 mg/kg,Mus musculus [5],38%
Nc1ncnc2c1c1c(=S)[nH]c(=O)[nH]c1n2C1O[C@H](CO)[C@@H](O)[C@H]1O (stereo partly specified),IC50,L1210 [1],11 µM
same,ILS at 100 mg/kg,Mus musculus [5],4%
C=CCSc1ncnc2c1c1c(N)ncnc1n2C1O[C@H](CO)[C@@H](O)[C@H]1O (stereo partly specified),ILS at 200 mg/kg,Mus musculus [7],9%
same,IC50,L1210 [1],110 µM
CSc1nc(O)c2c3c(N)ncnc3n(C3O[C@H](CO)[C@@H](O)[C@H]3O)c2n1 (stereo partly specified),ILS at 200 mg/kg,Mus musculus [7],0%
same,IC50,L1210 [1],80 µM
Nc1ncnc2c1c1c(O)nc(O)nc1n2C1O[C@H](CO)[C@@H](O)[C@H]1O (stereo partly specified),ILS at 400 mg/kg,Mus musculus [9],108%
same,IC50,L1210 [1],~100 µM
Nc1nc2c(c(=O)[nH]1)c1c(N)ncnc1n2[C@@H]1O[C@H](CO)[C@@H](O)[C@H]1O,ILS at 200 mg/kg,Mus musculus [7],13%
same,IC50,L1210 [1],2.5 µM
CSc1nc(N)c2c3c(N)ncnc3n(C3O[C@H](CO)[C@@H](O)[C@H]3O)c2n1 (stereo partly specified),ILS at 400 mg/kg,Mus musculus [9],1%
same,ID50,L1210 [11],No effect
N#Cc1c(Br)n(C2O[C@H](CO)[C@@H](O)[C@H]2O)c2ncnc(N)c12 (stereo partly specified),ILS at 600 mg/kg,Mus musculus [12],22%
same,IC50,L1210 [1],0.21 µM
CSc1nc(SC)c2c3c(N)ncnc3n(C3O[C@H](CO)[C@@H](O)[C@H]3O)c2n1 (stereo partly specified),ILS at 200 mg/kg,Mus musculus [7],45%
same,IC50,L1210 [1],78 µM
Nc1ncnc2c1c1c(N)ncnc1n2[C@@H]1O[C@H](CO)[C@@H](O)[C@H]1O,ILS at 100 mg/kg,Mus musculus [5],-9%
same,ID50,L1210 [11],No effect
